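Cultured in 96-well plates, cells were exposed to test compound for 48 hours across five concentrations. TGI marks complete inhibition of growth.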
Legend:
Test in all cases: NCI tumour cell line growth inhibition, 48 h
[1] = tested on: ACHN renal
[2] = tested on: NCI-H522 lung
[3] = tested on: MDA-MB-435
[4] = tested on: SF-295 CNS
[5] = tested on: OVCAR-5 ovarian
[6] = tested on: NCI/ADR-RES ovarian
[7] = tested on: SK-MEL-28 melanoma
[8] = tested on: SNB-75 CNS
[9] = tested on: BT-549 breast
[10] = tested on: RXF 393 renal
[11] = tested on: MDA-MB-231 breast
[12] = tested on: SK-OV-3 ovarian
[13] = tested on: A549 NSCLC
[14] = tested on: SK-MEL-2 melanoma
[15] = tested on: MDA-N
[16] = tested on: HS 578T breast
[17] = tested on: LOX IMVI melanoma
[18] = tested on: SW-620 colon
[19] = tested on: TK-10 renal
[20] = tested on: RPMI-8226 leukemia

SMILES	TGI [1] [µM]	TGI [2] [µM]	TGI [3] [µM]	TGI [4] [µM]	TGI [5] [µM]	TGI [6] [µM]	TGI [7] [µM]	TGI [8] [µM]	TGI [9] [µM]	TGI [10] [µM]	TGI [11] [µM]	TGI [12] [µM]	TGI [13] [µM]	TGI [14] [µM]	TGI [15] [µM]	TGI [16] [µM]	TGI [17] [µM]	TGI [18] [µM]	TGI [19] [µM]	TGI [20] [µM]
COc1cc(/C=N/n2c(-c3ccccc3)nn(C(C)=O)c2=O)cc(OC)c1OC	> 64.6	8.56	1.96	26.9	> 92.6	> 42.6	> 80.6	21.1	> 74.2	> 88.4	64.3	> 39.9	> 94.6	18.4	3.83	> 26.9	> 100	> 100	31.8	9.59
Cc1ccc(S(=O)(=O)Oc2nc3ccccc3nc2OS(=O)(=O)c2ccc(C)cc2)cc1	> 100	49.9	> 100	> 100	> 100	> 100	> 100	> 100	> 100	> 100	> 100	> 100	> 100	> 100	> 100	> 100	> 100	> 100	> 100	> 100
CC(C)[C@H](NC(=O)[C@H](N)Cc1ccc(N(CCCl)CCCl)cc1)C(=O)O	> 100	> 100	> 100	> 100	> 100	> 100	> 100	> 100	> 100	> 100	> 100	> 100	> 100	> 100	> 100	> 100	> 100	> 100	> 100	> 100
O=c1c2cc3c(=O)n4c(cc(-c5ccccc5)c5cc(Cl)ccc54)nc3cc2nc2cc(-c3ccccc3)c3cc(Cl)ccc3n12	> 100	> 100	> 100	> 100	> 100	> 100	> 100	> 100	> 100	> 100	> 100	> 100	> 100	> 100	> 100	> 100	> 100	> 100	> 100	> 100
Cc1cccc2c1c(=O)c1c(O)c3c(cc1n2C)OC(C)(C)C=C3	> 10	> 10	> 10	> 10	> 10	> 10	> 10	> 10	> 10	> 10	> 10	> 10	> 10	> 10	> 10	> 10	> 10	> 10	> 10	> 10
CC1(C)Cc2nc3c(cc2C(=O)C1C=N/C(C#N)=C(\N)C#N)C(=O)C(C=N/C(C#N)=C(\N)C#N)C(C)(C)C3 (stereo not given)	5.87	2.3	3.48	7.56	5.48	> 42	4.58	4.17	5.51	3.04	22.1	> 34.9	8.31	4.69	11.8	3.32	5.7	> 20.5	18	> 27.7
COc1ccccc1C1ON=C(c2ccc([N+](=O)[O-])cc2)N1C12CC3CC(CC(C3)C1)C2 (stereo not given)	> 100	> 100	> 100	> 100	> 100	> 100	> 100	> 100	> 100	60.4	> 100	> 100	> 100	> 100	> 100	> 100	> 100	> 100	> 100	> 100
CC1(C)OC(=O)N(c2ccccc2)C12C=Cc1cccc([N+](=O)[O-])c1O2 (stereo not given)	> 100	> 100	> 100	> 100	> 100	> 100	> 100	> 100	> 100	> 100	> 100	76.2	> 100	> 100	> 100	> 100	> 100	> 100	> 100	> 100
COC(=O)C(Cc1c[nH]c2ccccc12)NC(=O)c1ccc(-c2ccc(Cl)cc2Cl)o1 (stereo not given)	> 100	> 100	> 100	> 100	> 100	> 100	> 100	> 100	> 100	> 100	> 100	> 100	> 100	> 100	> 100	> 100	> 100	> 100	> 100	> 100
C/C=C(\C)C(O)C(C)C(O)C/C=C(C)/C=C(\C)C/C(C)=C/C/C=C(\C)C(O)C(C)c1ccc(CCC)c(=O)o1 (stereo not given)	53.2	17.2	22.7	16.9	37.9	29.7	32.3	25.2	25	77.3	26.4	94.5	27.8	45	22.8	37.9	28.3	28.4	71.8	> 100
COc1cc(NCCC2CCCCN2)c2ncccc2c1 (stereo not given)	> 100	> 100	> 67.2	> 100	> 100	> 100	> 59.8	> 100	> 100	77	> 92.1	> 100	> 100	> 91.1	> 100	> 100	> 100	> 100	> 100	> 68.1
O=C1C2=C(CC3=C(C2)CS(=O)(=O)C3)C(=O)C2=C1CC1=C(C2)CS(=O)(=O)C1	> 66.2	22.2	21.1	44.9	> 78.3	66.5	> 70	> 41	44.8	49.6	27.3	> 73.2	> 100	> 75.2	20.8	> 60.6	> 59.9	47.1	> 66.9	55.5
CCOC(=O)C1=NN(c2ccc([N+](=O)[O-])cc2)[C@@]2(C)C[C@]3(c4ccccc4)N(c4ccc([N+](=O)[O-])cc4)N=C(C(=O)OCC)N3c3ccccc3N12	> 100	> 100	> 100	> 100	> 100	> 100	> 100	> 100	> 100	> 100	84.4	> 100	> 100	> 100	> 100	> 100	> 100	> 100	> 100	> 100
COC(=O)c1cc(C(=CCC[C@H]2CC[C@@]3(C)C(CCC4C3CC[C@@]3(C)C4CC[C@@H]3C(C)CCCC(C)C)C2)c2cc(Cl)c(O)c(C(=O)OC)c2)cc(Cl)c1O (stereo not given in full)	> 10	> 10	> 10	> 10	> 10	> 10	> 10	> 10	> 10	> 10	> 10	> 10	> 10	> 10	> 10	> 10	> 10	> 10	> 10	> 10
NC(Cc1ccc(N(CCCl)CCCl)cc1)C(=O)NC(CCC(=O)O)C(=O)O (stereo not given)	> 100	> 100	> 100	> 100	> 100	> 100	> 100	> 100	> 100	> 100	> 100	> 100	> 100	> 100	> 100	> 100	> 100	> 100	> 100	> 100
